Results from patent US5159085A, “2-anilino phenylacetic acid derivatives as inhibitors of PLA2 and lipoxygenase” (American Home Products Corporation, priority 1991, dated 1992).
Where two headings read alike, the source gives them in different places.

How the values were obtained:
[1] = test system: TxB2 synthesis (cyclooxygenase) by rat glycogen-elicited polymorphonuclear leukocytes; assay: Inhibition of TxB2 synthesis by rat glycogen-elicited PMN (cyclooxygenase); assay type: cell-based, rat (female Wistar); conditions: read-out: IC50 (TxB2 synthesis)
Protocol: Rat polymorphonuclear leukocytes (PMNs) are obtained from female Wistar rats (150-200 g) which receive an injection of 6% glycogen (10 ml i.p.). Rats are sacrificed 18-24 hours post injection by CO2 asphyxiation and the elicited cells are harvested by peritoneal lavage using physiological saline (0.9% NaCl). The exudate is centrifuged at 400×g for 10 minutes. The supernatant fluid is discarded and the cell pellet is resuspended to a concentration of 2.0×10^7 cells/ml in HBSS containing Ca^++ and Mg^++ and 10 μM L-cysteine.
To 1 ml aliquots of cell suspension, test drugs or vehicle are added, then preincubated at 37° C. for 10 minutes. A 23187 (1 μM), [^3 H]-AA (3.0 μCi/ml) and unlabeled AA (1 μM) are then added and the samples are further incubated for 10 minutes. The reaction is terminated by centrifugation and pelleting cells. Supernatants are then analyzed by HPLC analysis on a 15 cm×4.6 mm ID supelcosil LC-18 (Supelco)(3M) column, using a two solvent system at a flow rate of 1.4 ml total flow as follows:
Percent solvent changes are accomplished in a linear fashion.
Injections: 150 μl of each supernatant is injected directly onto column and ^3 H arachidonic acid metabolites are monitored using an on-line radioactivity detector (Ramona, IN/US, Fairfield, NJ).
Standards: 10^4 -2.0×10^4 dpm of eicosanoids of interest are injected in 90 μl EtOH cocktail.
Co-chromatography with standard [^3 H] leukotriene B4 (LTB4) in medium of stimulated PMN exposed to drug is compared to that found in medium of stimulated cells exposed to no drug, generating percent inhibition.
Results are expressed as percent inhibition at a given compound dose or as an IC50 value.
In this assay, the procedure of Example 19 is carried out as described. However, in order to determine cyclooxygenase activity, the samples are co-chromatographed with authentic reference [^3 H]-TxB2.
The results are calculated as in Example 19 and presented below: […]

human platelet PLA2 = target: T1, human platelet PLA2 (Homo sapiens, UniProt P14555); assay: In vitro isolated phospholipase A2 assay, human platelet PLA2 (arachidonic acid release from 3H-AA E. coli substrate); assay type: biochemical
T1 construct: Semipurified human platelet acid extract PLA2; from tissue; host or cells: human platelets (semipurified acid extract)
T1 sequence (P14555 21-144): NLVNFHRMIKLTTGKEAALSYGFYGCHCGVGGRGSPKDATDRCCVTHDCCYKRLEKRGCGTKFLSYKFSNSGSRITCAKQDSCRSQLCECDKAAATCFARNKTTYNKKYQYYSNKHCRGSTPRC

[2] = target: T2, human synovial fluid PLA2 (Homo sapiens, UniProt P14555); assay: In vitro isolated phospholipase A2 assay, human synovial fluid PLA2; assay type: biochemical
T2 construct: Purified human synovial fluid; from tissue; host or cells: human synovial fluid
T2 sequence (P14555 21-144): T1 sequence (P14555 21-144)
Protocol: The compounds of the invention are tested in an in vitro isolated phospholipase A2 assay to determine the ability of the test compounds to inhibit the release of arachidonic acid from an arachidonic acid-containing substrate by the action of phospholipase A2 enzyme from human and non-human sources.
This assay is carried out as follows:
Into a 15 mL polypropylene tube are added the following:
*pre-incubate at room temperature 30 min prior to substrate addition.
^5 Stock 10 mM prepared in dimethyl sulfoxide. Make 1:2 dilution with
dimethyl sulfoxide and add 1 μ L to 100 μL assay tube.
^6 Two human PLA2 enzymes are used:
b) Purified human synovial fluid.
Incubate the 100 μL reaction mixture for 10 minutes at 37° C. in a shaking water bath. The reaction is terminated by the addition of 2 mL tetrahydrofuran, followed by vortexing. NH2 columns (100 μg/mL--Analytichem International) are conditioned with 0.5 mL tetrahydrofuran followed by 0.5 mL tetrahydrofuran/water (2 mL:0.1 mL, v/v).
The sample is loaded onto the columns and slowly drawn through them. The hydrolyzed arachidonic acid retained in the columns is eluted therefrom with 1 mL tetrahydrofuran/glacial acetic acid (2%). The arachidonic acid is transferred to scintillation vials and quantitated by β-counting analysis. A "total counts" sample is prepared by pipetting 25 μL ^3 H-arachidonate E. coli directly into a scintillation vial to which is added 1 mL tetrahydrofuran. 10 mL aquasol (scintillation cocktail) is added to all samples. [formula]

[3] = test system: paw edema induced by exogenous PLA2 (snake, A. piscivorus piscivorus); assay: In vivo PLA2 murine paw edema assay; parameters: species or system mouse (male CD-1)
Protocol: The ability of the compounds of the invention to inhibit paw edema induced by the exogenous administration of PLA2 is measured in the in vivo PLA2 murine paw edema assay.
The assay is carried out as follows:
Non-fasted, male CD-1 mice (8 weeks old; 31-36 grams) are placed in plastic boxes in groups of six. The right hind paw volume is measured using mercury plethysmography (zero time). […] A solution of purified PLA2, from the diamond back cotton mouth snake (A. piscivorus piscivorus) is prepared in saline at a concentration of 6 μg/ml. Fifty (50) μl (0.3 μg) of this PLA2 solution is injected subcutaneously into the right hind paw with a plastic 1 ml plastic syringe (27 gauge, 1" needle). Paw volume of the injected paw is measured again at 10 minutes, 30 minutes and 60 minutes after PLA2 injection. Animals are euthanized with CO2 at the completion of the study.
The paw edema is calculated by subtracting the zero time volume from the volume recorded at each time period. Mean paw edema for each treatment group is then calculated and expressed as (μl±S.E.). Drug effects are expressed as a percent change from control (vehicle) values. Statistical significance is determined by a one-way analysis of variance with LSD comparison to control (p<0.05). ED50 's are determined using repression analysis.

SMILES	IC50 ([1]; rat PMN, acetic acid) [µM]	inhibition at 10 µM (human platelet PLA2; 10 μM, Table IV, read-out: % Inhibition at a concentration of 10 μM, HP) [%]	inhibition at 10 µM ([2]; 10 μM, Table IV, read-out: % Inhibition at a concentration of 10 μM, HSF) [%]	IC50 ([2]; human synovial fluid) [µM]	% Change in Edema 10 min ([3]; 10 mg/kg i.v.) [%]	% Change in Edema 30 min ([3]; 10 mg/kg i.v.) [%]	% Change in Edema 60 min ([3]; 10 mg/kg i.v.) [%]	% Change in Edema 10 min ([3]; 100 mg/kg p.o.) [%]	% Change in Edema 30 min ([3]; 100 mg/kg p.o.) [%]	% Change in Edema 60 min ([3]; 100 mg/kg p.o.) [%]	IC50 ([1]; Rattus norvegicus, Leukocyte) [µM]	inhibition at 10 µM (human platelet PLA2; read-out: % Inhibition at 10 μM HP) [%]	inhibition at 10 µM ([2]; read-out: % Inhibition at 10 μM HSF) [%]
O=C(O)Cc1cc(OCc2ccc3ccccc3n2)ccc1Nc1c(Cl)cccc1Cl [Example 2, 2-[(2,6-Dichlorophenyl)amino]-5-(2-quinolylmethoxy)benzene acetic acid]	~10	12.7	47.6	6.3	-45	-37	-32	-52	-48	-28	–	–	–
O=C(O)Cc1ccccc1Nc1c(Cl)cccc1Cl [diclofenac, reference compound]	–	–	–	–	-19	-15	-1	-28	-38	-15	0.03	23	0
